The values that follow come from patent US20250230193A1, “CYCLIC COMPOUND HAVING SELECTIVE KRAS INHIBITORY EFFECT ON HRAS AND NRAS” (CHUGAI SEIYAKU KABUSHIKI KAISHA, priority 2022, published 2025).

Each structure is given as a SMILES string. Where a SMILES comes first, the peptide text is derived from it. Bridges are numbered along the chain shown (N, C = ends). [ ]: non-standard residue; d: D form. hPhe(3,5-F2-4-CF3) = N[C@@H](CCc1cc(F)c(C(F)(F)F)c(F)c1)C(=O)O; NPrPhe(4-CF3) = CCCN[C@@H](Cc1ccc(C(F)(F)F)cc1)C(=O)O; NMeGly(cPent) = CN[C@H](C(=O)O)C1CCCC1; αMeCha = C[C@](N)(CC1CCCCC1)C(=O)O; NMeD = CN[C@@H](CC(=O)O)C(=O)O; NMeL = CN[C@@H](CC(C)C)C(=O)O; Sar = CNCC(=O)O

Assay [1] has as its target GDP-bound HRAS wild-type protein (Homo sapiens, UniProt P01112). Description: Binding to HRAS by surface plasmon resonance (SPR), Single Cycle Kinetics. To be noted: SPR.
For assay [2], the target named is GDP-bound NRAS wild-type protein (Homo sapiens, UniProt P01111). Description: Binding to NRAS by surface plasmon resonance (SPR), Single Cycle Kinetics. To be noted: SPR.
GDP-bound NRAS wild-type protein, sequence (P01111 whole entry): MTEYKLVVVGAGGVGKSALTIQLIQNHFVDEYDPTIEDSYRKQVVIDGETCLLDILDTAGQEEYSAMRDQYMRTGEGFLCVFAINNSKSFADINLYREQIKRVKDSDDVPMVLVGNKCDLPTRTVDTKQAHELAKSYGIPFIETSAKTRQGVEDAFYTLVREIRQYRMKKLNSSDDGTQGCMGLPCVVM
[3] abbreviates: KD ratio, GDP-bound HRAS wild-type vs GDP-bound KRAS wild-type.
Where [4] appears, read: KD ratio, GDP-bound NRAS wild-type vs GDP-bound KRAS wild-type.

GDP-bound HRAS wild-type protein, sequence (P01112 whole entry): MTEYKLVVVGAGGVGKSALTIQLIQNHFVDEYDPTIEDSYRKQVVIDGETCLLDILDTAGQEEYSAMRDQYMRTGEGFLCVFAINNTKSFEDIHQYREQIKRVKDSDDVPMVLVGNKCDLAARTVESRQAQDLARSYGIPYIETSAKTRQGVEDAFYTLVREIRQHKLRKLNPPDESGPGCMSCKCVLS

With `CC[C@H](C)[C@@H]1NC(=O)[C@H](CC(C)C)N(C)C(=O)C[C@@H](C(=O)N2CCOCC2)NC(=O)[C@H](C2CCCC2)N(C)C(=O)C2(CCCC2)NC(=O)[C@@H]2CCCN2C(=O)[C@H](CCc2cc(F)c(C(F)(F)F)c(F)c2)NC(=O)CN(C)C(=O)[C@H](Cc2ccc(C(F)(F)F)cc2)N2CCCC[C@@H](C2=O)N(C)C(=O)CN(C)C1=O` [PP0541], in assay [1], the “HRAS/KRAS (ratio of KD value with respect to GDP-bound HRAS wild-type protein to KD value with respect to KRAS)” value was “B (a compound having 3 or more and less than 10 is denoted as B)”. For the same compound, the “NRAS/KRAS (ratio of KD value with respect to GDP-bound NRAS wild-type protein to KD value with respect to KRAS)” value in assay [2] was “B (a compound having 3 or more and less than 10 is denoted as B)”.

Consider `CCO[C@@H]1C[C@H]2C(=O)NC3(CC(C)(C)C3)C(=O)N(C)[C@@H](C3CCCC3)C(=O)N(C)[C@H](C(=O)N(C)C)CC(=O)N(C)[C@@H](CC(F)F)C(=O)N[C@@H]([C@@H](C)CC)C(=O)N(C)CC(=O)N(C)[C@H]3C/C=C\CCN(C3=O)[C@@H](Cc3ccc(C(F)(F)F)cc3)C(=O)N(C)CC(=O)N[C@@H](CCc3ccc(C(F)(F)F)c(Cl)c3)C(=O)N2C1` [PP1747], for which the “HRAS/KRAS (ratio of KD value for HRAS to KD value for KRAS)” value in assay [1] (setting [3]) is “A (a compound having 10 or more and less than 20 is denoted as A)”. Also, the “NRAS/KRAS (ratio of KD value for NRAS to KD value for KRAS)” value in assay [2] (setting [4]) was “A (a compound having 10 or more and less than 20 is denoted as A)”.

As to `CCC[C@H]1C(=O)N[C@@H]([C@@H](C)CC)C(=O)N(C)CC(=O)N(C)[C@H]2C/C=C\CCN(C2=O)[C@@H](Cc2ccc(C)cc2)C(=O)N(C)CC(=O)N[C@@H](CCc2ccc(C(F)(F)F)c(Cl)c2)C(=O)N2C[C@H](C)C[C@H]2C(=O)NC2(CC(C)(C)C2)C(=O)N(C)[C@@H](C2CCCC2)C(=O)N(C)[C@H](C(=O)N(C)C)CC(=O)N1C` [PP2210], the “HRAS/KRAS (ratio of KD value with respect to HRAS to KD value with respect to KRAS)” value in assay [1] (GDP-bound HRAS wild-type vs GDP-bound KRAS wild-type) was “B (a compound having 3 or more and less than 10 is denoted as B)”. Further, the “NRAS/KRAS (ratio of KD value with respect to NRAS to KD value with respect to KRAS)” value in assay [2] (GDP-bound NRAS wild-type vs GDP-bound KRAS wild-type) was “A (a compound having 10 or more and less than 20 is denoted as A)”.

Consider `CCO[C@@H]1C[C@H]2C(=O)NC3(CC(C)(C)C3)C(=O)N(C)[C@@H](C(CC)CC)C(=O)N(C)[C@H](C(=O)N(C)C)CC(=O)N(C)[C@H]3CCCCCCc4ccc(cc4)C[C@@H](C(=O)N(C)CC(=O)N[C@@H](CCc4ccc(C(F)(F)F)c(OC)c4)C(=O)N2C1)N1CC/C=C\C[C@@H](C1=O)N(C)C(=O)CN(C)C(=O)[C@H]([C@@H](C)CC)NC3=O` [PP3032], for which the “HRAS/KRAS (ratio of KD value with respect to GDP-bound HRAS wild-type protein to KD value with respect to KRAS)” value in assay [1] (GDP-bound wild-type proteins) is “A (a compound having 10 or more and less than 20 is denoted as A)”. In assay [2] (GDP-bound wild-type proteins), the “NRAS/KRAS (ratio of KD value with respect to GDP-bound NRAS wild-type protein to KD value with respect to KRAS)” value was “AA (a compound having 20 or more is denoted as AA)”.

Take `CCC[C@H]1C(=O)N[C@@H]([C@@H](C)CC)C(=O)N(C)CC(=O)N(C)[C@H]2C/C=C\CCN(C2=O)[C@@H](Cc2ccc(C(F)(F)F)cc2)C(=O)N(C)CC(=O)N[C@@H](CCc2ccc(C(F)(F)F)c(Cl)c2)C(=O)N2C[C@H](OCC)C[C@H]2C(=O)NC2(CC(C)(C)C2)C(=O)N(C)[C@@H]([C@@H](C)CC)C(=O)N(C)[C@H](C(=O)N(C)C)CC(=O)N1C` [PP2973]: the “HRAS/KRAS (ratio of KD value with respect to GDP-bound HRAS wild-type protein to KD value with respect to KRAS)” value in assay [1] (GDP-bound wild-type proteins) was “A (a compound having 10 or more and less than 20 is denoted as A)”. Moreover, in assay [2] (GDP-bound wild-type proteins), the “NRAS/KRAS (ratio of KD value with respect to GDP-bound NRAS wild-type protein to KD value with respect to KRAS)” value was “A (a compound having 10 or more and less than 20 is denoted as A)”.

Regarding `CCO[C@@H]1C[C@H]2C(=O)NC3(CCC3)C(=O)N(C)[C@@H](C3CCCC3)C(=O)N(C)[C@H](C(=O)N(C)C)CC(=O)N(C)[C@@H](CC(C)(C)C)C(=O)N[C@@H]([C@@H](C)CC)C(=O)N(C)CC(=O)N(C)[C@H]3C/C=C\CCN(C3=O)[C@@H](Cc3ccc(C(F)(F)F)cc3)C(=O)N(C)CC(=O)N[C@@H](CCc3cc(F)c(C(F)(F)F)c(F)c3)C(=O)N2C1` [PP1117], the “HRAS/KRAS (ratio of KD value with respect to HRAS to KD value with respect to KRAS)” value in assay [1] (setting [3]) was “A (a compound having 10 or more and less than 20 is denoted as A)”. In addition, in assay [2] (setting [4]), the “NRAS/KRAS (ratio of KD value with respect to NRAS to KD value with respect to KRAS)” value was “A (a compound having 10 or more and less than 20 is denoted as A)”.

For the compound `CCCN1C(=O)CN(C)C(=O)CN(C)C(=O)[C@H]([C@@H](C)CC)NC(=O)[C@H](CC(C)C)N(C)C(=O)C[C@@H](C(=O)N(C)C)N(C)C(=O)[C@H](C2CCCC2)N(C)C(=O)[C@](C)(CC2CCCCC2)NC(=O)[C@@H]2CCCN2C(=O)[C@H](CCc2cc(F)c(C(F)(F)F)c(F)c2)NC(=O)CN(C)C(=O)[C@@H]1Cc1ccc(C(F)(F)F)cc1` [PP0739] ([NMeL]I[Sar][Sar][NPrPhe(4-CF3)][Sar][hPhe(3,5-F2-4-CF3)]P[αMeCha][NMeGly(cPent)][NMeD]-NMe2; lactam N-11), the “HRAS/KRAS (ratio of KD value with respect to GDP-bound HRAS wild-type protein to KD value with respect to KRAS)” value in assay [1] is “C (A compound having a KD ratio of 0.1 or more and less than 3 is denoted as C)”. Besides, the “NRAS/KRAS (ratio of KD value with respect to GDP-bound NRAS wild-type protein to KD value with respect to KRAS)” value in assay [2] was “B (a compound having 3 or more and less than 10 is denoted as B)”.
